Source: article PMC3353486, “Fluorescence Correlation Spectroscopy in Drug Discovery: Study of Alexa532-Endothelin 1 Binding to the Endothelin ETA Receptor to Describe the Pharmacological Profile of Natural Products” (The Scientific World Journal, 2012)

How the values were obtained:
GABAA receptor = conditions: coincubated benzodiazepines, hippocampal neurons, selectively complexes with hindered lateral mobility; cited from earlier work
Excerpt: For the ETA receptor model described here, as well as for the GABAA and the β 2-adrenergic receptor models described elsewhere, the proportion of the fast diffusing receptor-ligand complexes was higher than that of slow diffusing receptor-ligand complexes. These findings ...

[1] = test system: Rat vascular smooth muscle A10 cells; test: Inositol phosphate (IP1) production, IP-One ELISA, A10 cells; assay type: cell-based; conditions: 0.5 to 50 nM ligand, 30 min; for inositol phosphate (IP1) production, dose-dependent increase up to: ELISA read at 450 nm, mean ± SEM of eight measurements
Description: The inositol phosphate determination assay was performed using the IP-One ELISA Kit for adherent cells (CISBIO, Cedex, France) following the operation instructions. […] The test substances were diluted in the stimulation buffer to a final concentration ranging from 0.5 to 50 nM. Cells were incubated for 30 minutes before their lysis. The supernatant was transferred into the ELISA plate where the competitive immunoassay took place. After the reaction was stopped, the optical density corresponding to IP accumulation was read at 450 nm with Bio-Rad Microplate Reader (Bio-Rad, Munich, Germany).
Data are presented as the mean ± SEM of eight measurements.

ETA receptor = test system: ETA receptor; parameters: method as in PMID 8942650; conditions: ET-1/receptor complexes dissociate slowly; cited from earlier work
endothelin ETA receptor = target: T1, endothelin ETA receptor (Rattus norvegicus, UniProt P26684); test: FCS binding of Alexa532-ET1 to ETA receptor on living A10 cells (total, saturation, lateral mobility)
T1 construct: endothelin ETA receptor-ligand complex alone and under the influence of a semisynthetic selective antagonist and a fungal extract on living A10 cells; endogenous in cells; host or cells: A10 cells
T1 sequence (P26684 21-426): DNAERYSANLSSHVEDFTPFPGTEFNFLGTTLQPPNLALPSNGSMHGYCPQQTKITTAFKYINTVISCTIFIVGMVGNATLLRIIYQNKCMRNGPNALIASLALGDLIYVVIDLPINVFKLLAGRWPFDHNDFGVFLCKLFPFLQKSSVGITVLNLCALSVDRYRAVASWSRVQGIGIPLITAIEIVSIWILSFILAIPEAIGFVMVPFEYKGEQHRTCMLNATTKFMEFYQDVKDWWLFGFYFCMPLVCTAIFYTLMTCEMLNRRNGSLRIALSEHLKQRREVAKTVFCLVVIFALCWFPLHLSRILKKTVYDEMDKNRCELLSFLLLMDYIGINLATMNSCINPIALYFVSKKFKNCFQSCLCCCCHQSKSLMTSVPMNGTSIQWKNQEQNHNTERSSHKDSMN
Description: FCS measurements were performed via confocal illumination of a volume element of 0.19 fL in a ConfoCor 1 instrument (Zeiss, Jena, Germany) with a C-Apochromat 63x, NA 1.2 objective for water immersion. A dichroic filter and a band-pass filter (FT 540, EF 530–600) (Andover, Salem, MA) separated the excitation light from the emitted fluorescence. Sample excitation was performed with the 514 nm line of an argon laser. The power of the laser beam entering the sample was 2.4 kW/cm^2. The intensity fluctuations were detected by an avalanche photodiode (SPCM-AQ Series, PerkinElmer Optoelectronics, Fremont, ON) and were correlated with a digital hardware correlator (ALV-5000, ALV, Langen, Germany). To calibrate the volume element of observation for the experiments, a defined concentration of tetramethylrhodamine (TMR) was used. From the determined diffusion time constant of TMR and the diffusion coefficient D of 280 μm^2/s, the radio ω 0 (0.20 μm) and z 0 (1.08 μm) of the volume element were determined. Volume element positioning to the upper membrane of the cell was performed by motor-aided scanning through the cell in the z-direction (optoelectronical DC-servodrives, resolution of 0.1 μm). For the FCS experiments, the focus was placed at half maximal of fluorescence intensity at the upper membrane, taking in fast diffusing free ligand and slow diffusing receptor-ligand complexes in the plasma membrane.
A10 cells were seeded at a density of 5.0 × 10^4 on 18 mm poly-D-lysine-coated coverslips. The coverslips were placed in a Nunc 12 well plate, and the cells were cultured for 7 days in Dulbecco's Modified Essential Media supplemented with L-glutamine (2 mM), 1% of a solution containing 10000 I.U./mL penicillin and 10000 μg/mL streptomycin (GIBCO, Invitrogen, Karlsruhe, Germany) and 20% foetal calf serum. The cells were grown in 5% CO2 at 37°C until confluence was reached.
Prior to the FCS measurements, cells were washed three times with Locke's solution (5 mM HEPES, 154 mM NaCl, 5.6 mM KCl, 1 mM MgCl2, 3.6 mM Na2CO3, 2.0 mM glucose, 2.3 mM CaCl2 (pH 7.4)) at 37°C.
The autocorrelation function G(τ) for j different diffusing components in a three-dimensional Gaussian volume element is given by the following equation:
(2) τDj=ω02/4Dj, (3) Qj=σjηjgj, where N j is the average number of molecules of the species j in the volume element, τ Dj is the diffusion time constant of the species j, τ is the correlation time; ω 0 is the radius of the observation volume in the focal plane, z 0 is the radius of the observation volume in the z-direction, D j is the translational diffusion coefficient of the species j; Q j is the quantum yield factor, σ j is the absorption coefficient, η j is the fluorescence quantum yield, and g j is the fluorescence detection efficiency of the species j.
All data points from FCS measurements represent mean values and standard deviations of six independent experiments. The statistical significance of results was proven with one factorial analysis of variance (ANOVA). The results were considered to be significant for P values ≤0.05.

[2] = 14.3 nM Alexa532-ET1, equilibrium
[3] = control, 14.3 nM Alexa532-ET1, 45 min, living A10 cells, FCS, mean ± SD of six independent experiments

**Q.** With Cc1ncc2n1-c1ccc(Cl)cc1C(c1ccccc1F)=NC2 [midazolam] as the molecule, how does the “effect on Alexa532-muscimol binding (in words)” value (GABAA receptor) read?
**A.** Its value is “increased binding of Alexa532-muscimol”.

**Q.** What does the source list for Endothelin-1 [ET-1, reference compound]?
**A.** inositol phosphate (IP1) production, dose-dependent increase up to [1]: 70 to 80 nM; incubation time necessary to reach thermodynamic equilibrium (ETA receptor): more than 20 h

**Q.** For CC[C@H](C)[C@H](NC(=O)[C@H](CC(=O)O)NC(=O)[C@H](CC(C)C)NC(=O)[C@H](Cc1c[nH]cn1)NC(=O)[C@@H]1CSSC[C@H](N)C(=O)N[C@@H](CO)C(=O)N[C@H]2CSSC[C@H](NC(=O)[C@H](CCC(=O)O)NC(=O)[C@H](CCCCNC(=O)c3ccc(C4=c5cc6c(c(S(=O)(=O)O)c5Oc5c4cc4c(c5S(=O)(=O)O)NC(C)C4(C)C)=NC(C)C6(C)C)cc3)NC(=O)[C@H](CC(=O)O)NC(=O)[C@H](CCSC)NC(=O)[C@H](CC(C)C)NC(=O)[C@H](CO)NC(=O)[C@H](CO)NC2=O)C(=O)N[C@@H](C(C)C)C(=O)N[C@@H](Cc2ccc(O)cc2)C(=O)N[C@@H](Cc2ccccc2)C(=O)N1)C(=O)N[C@H](C(=O)N[C@@H](Cc1c[nH]c2ccccc12)C(=O)O)[C@@H](C)CC (some centres unmarked) [Alexa532-ET1], which “diffusion time constant τ free” value (free diffusing Alexa532-ET1 in solution, n = 6) is on record?
**A.** The value was 95.6 ± 9.0 μs.

**Q.** And the “diffusion coefficient D free” value (free diffusing ligand, calculated from τ free using equation (2))?
**A.** The value was 104.2 ± 9.0 μm^2/s.

**Q.** And the total binding (endothelin ETA receptor; 14.3 nM Alexa532-ET1, 45 min, 20°C)?
**A.** The total binding was 43.5 ± 12.3%.

**Q.** And the “total bound ligand concentration” value (endothelin ETA receptor; 14.3 nM Alexa532-ET1, 45 min, 20°C, equilibrium)?
**A.** Its value is 6.22 ± 1.7 nM.

**Q.** And the “bound ligand with hindered diffusion (D bound1)” value (endothelin ETA receptor; [2])?
**A.** The value was 2.3 ± 0.7 nM.

**Q.** What about the “receptor-ligand complexes with unrestricted lateral mobility (D bound2)” value (endothelin ETA receptor; [2]) of the same molecule?
**A.** The value was 3.9 ± 1.0 nM.

**Q.** What about the “maximum number of binding sites B max” value (endothelin ETA receptor; bound versus total ligand, nonlinear curve fitting) of the same molecule?
**A.** Its value is 7.70 ± 0.74 nM.

**Q.** And the “Free L with D free [%]” value (endothelin ETA receptor; [3])?
**A.** The value was 56.5 ± 8.5%.

**Q.** And the “R-L with D bound1 [%] (hindered diffusion, % of total Alexa532-ET1)” value (endothelin ETA receptor; [3])?
**A.** Its value is 16.0 ± 5.2%.

**Q.** And the “R-L with D bound2 [%] (unrestricted lateral mobility, % of total Alexa532-ET1)” value (endothelin ETA receptor; [3])?
**A.** The value was 27.5 ± 7.0%.

**Q.** And the “diffusion time constant τ bound2” value (endothelin ETA receptor; receptor-ligand complex in plasma membrane, fast, 14.3 nM, 45 min, 20°C, n = 6)?
**A.** Its value is 1.8 ± 0.2 ms.

**Q.** What about the “diffusion time constant τ bound1” value (endothelin ETA receptor; receptor-ligand complex in plasma membrane, slow, 14.3 nM, 45 min, 20°C, n = 6) of the same molecule?
**A.** The value was 63.6 ± 41.6 ms.

**Q.** What about the “diffusion coefficient D bound1” value (endothelin ETA receptor; receptor-ligand complexes with hindered lateral mobility, calculated from τ bound1) of the same molecule?
**A.** Its value is 0.16 ± 0.06 μm^2/s.

**Q.** What about the “diffusion coefficient D bound2” value (endothelin ETA receptor; receptor-ligand complexes with unrestricted mobility, calculated from τ bound2) of the same molecule?
**A.** The value was 5.6 ± 0.6 μm^2/s.

**Q.** What about the “total concentration at which binding saturates” value (endothelin ETA receptor; saturation of Alexa532-ET1 binding, 5–55 nM, 45 min) of the same molecule?
**A.** Its value is “approximately 35 nM”.

**Q.** And the “inositol phosphate production (in words)” value [1]?
**A.** The value was “Dose-dependent increase of inositol phosphate production”.

**Q.** And the “inositol phosphate (IP1) production, dose-dependent increase up to” value [1]?
**A.** The value was 70 to 80 nM.
